Reference: patent publication US20050222264A1, “Anti-rhinovirus active agents” (UNIHART CORPORATION, priority 2002, published 2005)

Legend:
Assay type in all cases: cell-based, Human Rhinoviruses
Settings in all cases: count after 3 days
Rhinovirus M Strain = experiment: Plaques assay on cell mono-layers, Rhinovirus M strain, MKC-5
Procedure: (§1) The activity of the above compounds was evaluated in a plaque inhibition assay carried out on mono-layers of kidney cells from Rhesus monkey and from WI38 and Ohio-HeLa human cells, suitable for the propagation of Rhinoviruses M and H strains respectively. In this assay, the addition to the culture medium of an agent able to impede the viral penetration in the cells reduces the formation of microplaques compared with an untreated control culture. Therefore, the effectiveness of the test compound can be determined by counting the microplaques in treated and non-treated cultures after exposure to the virus.
(§2) • 1. prepare confluent kidney cell mono-layers from Rhesus monkeys and from human cell lines (WI 38, MRC-5 and Ohio-Hela cells) in 6.75 cm Ø Petri dishes; • 2. aspirate the growth medium; • 3. wash each dish with 10 ml of culture medium (serum-free growth medium), Earle's saline solution—lactoalbumine hydrolysate and incubate at 33° C. for 60′; • 4. aspirate the liquid; • 5. prepare serial 1:10 viral dilutions (Rhinovirus-strain M and Rhinovirus-strain H) in Earle's saline solution—lactoalbumine hydrolysate and inoculate each dish with 0.2 ml volumes of viral dilution. Each viral dilution is inoculated in duplicate. • 6. Prepare analogous serial viral dilutions (as in 5) in Earle's saline solution—lactoalbumine hydrolysate, added with the anti-viral test compound at the desired concentration. • 7. Prepare Earle's saline solution—lactoalbumine hydrolysate added with the test anti-viral compound at the desired concentration as the control (one control for each test compound). • 8. incubate the infected mono-layers at 33° C. for 60′, gently rocking the dishes at 15′ intervals in order to evenly distribute the inoculum; • 9. place the dishes on a flat surface; • 10. thoroughly add 10 ml of nutritive agar in Earle's saline solution—calf serum, equilibrated at 44° C., to each dish and allow to harden. […]

Rhinovirus H Strain [1] = experiment: Plaques assay on cell mono-layers, Rhinovirus H strain, WI38
Procedure: as §1
• 1. prepare confluent kidney cell mono-layers from Rhesus monkeys and from human cell lines (WI 38, MRC-5 and Ohio-Hela cells) in 6.75 cm Ø Petri dishes; • 2. aspirate the growth medium; • 3. wash each dish with 10 ml of culture medium (serum-free growth medium), Earle's saline solution—lactoalbumine hydrolysate and incubate at 33° C. for 60′; • 4. aspirate the liquid; • 5. prepare serial 1:10 viral dilutions (Rhinovirus-strain M and Rhinovirus-strain H) in Earle's saline solution—lactoalbumine hydrolysate and inoculate each dish with 0.2 ml volumes of viral dilution. Each viral dilution is inoculated in duplicate. • 6. […]

Rhinovirus H Strain [2] = experiment: Plaques assay on cell mono-layers, Rhinovirus H strain, Ohio-HeLa
Procedure: as §1, §2

[3] = dilution of inoculated virus 10^−3, same molar concentration of a 12.5 γ/ml xenaldial solution
[4] = dilution of inoculated virus 10^−4, same molar concentration of a 12.5 γ/ml xenaldial solution
[5] = dilution of inoculated virus 10^−5, same molar concentration of a 12.5 γ/ml xenaldial solution

CCOC(Nc1ccc(C(=O)O)cc1)C(=O)c1ccc(-c2ccccc2)cc1 (stereo not drawn) [Xenalamine, p-(α-ethoxy-p-phenyl-phenacylamino)-benzoic acid, reference compound]
n° of plaques in 2 dishes (Rhinovirus M Strain; [3]): 4 | n° of plaques in 2 dishes (Rhinovirus M Strain; [4]): 2 | n° of plaques in 2 dishes (Rhinovirus M Strain; [5]): 1 | n° of plaques in 2 dishes (Rhinovirus H Strain [1]; [3]): 3 | n° of plaques in 2 dishes (Rhinovirus H Strain [1]; [4]): 1 | n° of plaques in 2 dishes (Rhinovirus H Strain [2]; [3]): 2 | n° of plaques in 2 dishes (Rhinovirus H Strain [2]; [4]): 1 | n° of plaques in 2 dishes (Rhinovirus H Strain [2]; [5]): 1
